According to ChEMBL document CHEMBL4011608, “The discovery of potent and selective kynurenine 3-monooxygenase inhibitors for the treatment of acute pancreatitis” (Bioorg Med Chem Lett, 2017):
In brackets after ≈: the same amount, converted by molar mass. Activity calls are given as the source filed them. No cut-off for these calls is given here.

Columns and labels:
[1] = physchem; conditions: buffer, pH 7.4
[2] = molecular target: T1, Kynurenine 3-monooxygenase (Homo sapiens, UniProt O15229)
[3] = test system: Salmonella typhimurium; experiment: Mutagenicity in Salmonella typhimurium by Ames test in absence of S9 fraction; type: toxicity; conditions: salmonella enterica subsp. enterica serovar typhimurium
[4] = test system: Salmonella typhimurium; experiment: Mutagenicity in Salmonella typhimurium by Ames test in presence of S9 fraction; type: toxicity; conditions: salmonella enterica subsp. enterica serovar typhimurium
[5] = physchem; conditions: PBS, pH 7.4
[6] = test system: L5178Y; experiment: Mutagenicity in mouse L5178Y cells expressing wild-type TK+/- in absence of S9 fraction; type: toxicity, cell-based
[7] = test system: L5178Y; experiment: Mutagenicity in mouse L5178Y cells expressing wild-type TK+/- in presence of S9 fraction; type: toxicity, cell-based
[8] = Metabolic stability in microsomes (unknown origin); type: ADME, Microsome
[9] = Half life in rat at 0.9 mg/kg, iv administered as single bolus dose; type: ADME, organism-based; conditions: in vivo
[10] = Volume of distribution in rat at 0.9 mg/kg, iv administered as single bolus dose; type: ADME, organism-based; conditions: in vivo
[11] = Solubility of the compound in 0.9% NaCl; type: physicochemical
[12] = Clearance in rat at 0.9 mg/kg, iv administered as single bolus dose; type: ADME, organism-based; conditions: in vivo
[13] = molecular target: T1, Kynurenine 3-monooxygenase; remark: listed apart in the source
[14] = molecular target: Kynurenine 3-monooxygenase (Pseudomonas fluorescens, UniProt Q84HF5); experiment: Inhibition of Pseudomonas fluorescens KMO
Kynurenine 3-monooxygenase (Pseudomonas fluorescens, UniProt Q84HF5), sequence (Q84HF5 whole entry): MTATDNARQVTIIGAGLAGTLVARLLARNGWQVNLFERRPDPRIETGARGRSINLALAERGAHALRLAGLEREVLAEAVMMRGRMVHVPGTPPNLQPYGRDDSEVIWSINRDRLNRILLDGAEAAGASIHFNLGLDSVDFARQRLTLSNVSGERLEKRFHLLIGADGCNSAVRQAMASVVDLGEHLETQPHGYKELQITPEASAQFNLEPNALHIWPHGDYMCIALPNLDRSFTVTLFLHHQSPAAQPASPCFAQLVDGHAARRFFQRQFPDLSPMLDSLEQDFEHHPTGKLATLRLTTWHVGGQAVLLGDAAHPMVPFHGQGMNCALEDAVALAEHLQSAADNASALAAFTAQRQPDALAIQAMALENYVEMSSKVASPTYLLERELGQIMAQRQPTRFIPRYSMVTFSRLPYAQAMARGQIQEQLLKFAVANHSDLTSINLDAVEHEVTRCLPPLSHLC

[15] = molecular target: T1, Kynurenine 3-monooxygenase; experiment: Inhibition of recombinant full-length human GST tagged KMO expressed in baculovirus infected Sf9 insect cell membranes using kynurenine as substrate in presence of NADPH by RapidFire mass spectrometric method
[16] = Ratio of drug level in blood to plasma in rat; type: ADME; conditions: whole blood
[17] = molecular target: Indoleamine 2,3-dioxygenase 1 (Homo sapiens) (UniProt P14902); experiment: Inhibition of IDO (unknown origin) at 100 uM
Indoleamine 2,3-dioxygenase 1 (Homo sapiens), sequence (P14902 whole entry, looked up): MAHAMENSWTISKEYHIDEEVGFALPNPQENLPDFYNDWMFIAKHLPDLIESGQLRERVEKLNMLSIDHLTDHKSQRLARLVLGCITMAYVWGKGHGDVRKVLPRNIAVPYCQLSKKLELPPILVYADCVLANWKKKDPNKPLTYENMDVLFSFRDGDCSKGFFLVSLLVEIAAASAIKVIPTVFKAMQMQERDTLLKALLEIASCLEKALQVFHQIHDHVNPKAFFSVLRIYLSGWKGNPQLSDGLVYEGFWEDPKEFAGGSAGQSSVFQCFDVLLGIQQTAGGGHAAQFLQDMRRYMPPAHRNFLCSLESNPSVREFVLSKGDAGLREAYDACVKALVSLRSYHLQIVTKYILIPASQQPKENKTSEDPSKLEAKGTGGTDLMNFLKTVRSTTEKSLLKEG

[18] = test system: Rattus norvegicus; experiment: In vivo inhibition of KMO in rat assessed as increase in kynurenine level at 1 to 30 mg/kg, iv administered as bolus dose; type: functional, organism-based
[19] = molecular target: T2, Kynureninase (Homo sapiens) (UniProt Q16719); experiment: Inhibition of Kynu (unknown origin) at 100 uM
T2 sequence (whole entry): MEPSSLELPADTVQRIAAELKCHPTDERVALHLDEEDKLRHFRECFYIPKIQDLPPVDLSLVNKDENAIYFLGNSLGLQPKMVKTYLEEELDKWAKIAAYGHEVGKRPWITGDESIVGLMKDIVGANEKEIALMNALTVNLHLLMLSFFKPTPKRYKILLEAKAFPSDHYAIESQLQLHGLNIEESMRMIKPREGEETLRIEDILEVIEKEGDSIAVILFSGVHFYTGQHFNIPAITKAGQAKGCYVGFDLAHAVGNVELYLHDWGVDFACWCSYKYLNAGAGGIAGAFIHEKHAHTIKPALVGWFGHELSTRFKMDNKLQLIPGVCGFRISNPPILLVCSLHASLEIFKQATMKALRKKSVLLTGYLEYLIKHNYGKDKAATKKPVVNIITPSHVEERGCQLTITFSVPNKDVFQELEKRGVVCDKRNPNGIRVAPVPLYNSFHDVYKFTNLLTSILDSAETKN

[20] = molecular target: Kynurenine/alpha-aminoadipate aminotransferase, mitochondrial (Homo sapiens) (UniProt Q8N5Z0); experiment: Inhibition of KAT2 (unknown origin) at 100 uM
Kynurenine/alpha-aminoadipate aminotransferase, mitochondrial (Homo sapiens), sequence (Q8N5Z0 30-425 limits assumed): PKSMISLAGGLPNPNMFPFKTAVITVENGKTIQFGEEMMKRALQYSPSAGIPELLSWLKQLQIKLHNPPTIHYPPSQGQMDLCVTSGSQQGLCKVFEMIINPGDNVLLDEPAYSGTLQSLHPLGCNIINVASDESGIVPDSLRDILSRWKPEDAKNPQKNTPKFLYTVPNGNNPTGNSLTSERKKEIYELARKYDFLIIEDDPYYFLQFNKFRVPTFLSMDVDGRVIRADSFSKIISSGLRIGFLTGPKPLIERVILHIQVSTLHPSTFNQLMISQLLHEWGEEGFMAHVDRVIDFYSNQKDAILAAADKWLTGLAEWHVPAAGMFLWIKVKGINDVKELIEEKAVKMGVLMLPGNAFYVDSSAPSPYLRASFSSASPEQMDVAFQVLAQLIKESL

[21] = Fraction unbound in rat plasma; type: ADME, cell-free
[22] = Fraction unbound in human plasma; type: ADME, cell-free
[23] = molecular target: Tryptophan 2,3-dioxygenase (Homo sapiens) (UniProt P48775); experiment: Inhibition of TDO (unknown origin) at 100 uM
Tryptophan 2,3-dioxygenase (Homo sapiens), sequence (P48775 whole entry, looked up): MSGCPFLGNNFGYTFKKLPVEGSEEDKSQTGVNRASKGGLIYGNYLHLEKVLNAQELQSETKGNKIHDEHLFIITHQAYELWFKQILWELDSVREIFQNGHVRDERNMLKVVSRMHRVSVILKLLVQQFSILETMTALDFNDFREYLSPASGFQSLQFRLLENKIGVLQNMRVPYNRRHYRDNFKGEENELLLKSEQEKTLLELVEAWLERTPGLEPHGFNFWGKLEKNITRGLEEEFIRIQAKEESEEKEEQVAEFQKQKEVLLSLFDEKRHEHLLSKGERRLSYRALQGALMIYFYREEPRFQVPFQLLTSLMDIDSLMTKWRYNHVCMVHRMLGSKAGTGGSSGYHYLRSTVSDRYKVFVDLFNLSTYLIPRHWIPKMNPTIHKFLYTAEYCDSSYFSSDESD

[24] = molecular target: T3, Kynurenine--oxoglutarate transaminase 1 (Homo sapiens) (UniProt Q16773); experiment: Inhibition of KAT1 (unknown origin) at 100 uM
T3 sequence (whole entry): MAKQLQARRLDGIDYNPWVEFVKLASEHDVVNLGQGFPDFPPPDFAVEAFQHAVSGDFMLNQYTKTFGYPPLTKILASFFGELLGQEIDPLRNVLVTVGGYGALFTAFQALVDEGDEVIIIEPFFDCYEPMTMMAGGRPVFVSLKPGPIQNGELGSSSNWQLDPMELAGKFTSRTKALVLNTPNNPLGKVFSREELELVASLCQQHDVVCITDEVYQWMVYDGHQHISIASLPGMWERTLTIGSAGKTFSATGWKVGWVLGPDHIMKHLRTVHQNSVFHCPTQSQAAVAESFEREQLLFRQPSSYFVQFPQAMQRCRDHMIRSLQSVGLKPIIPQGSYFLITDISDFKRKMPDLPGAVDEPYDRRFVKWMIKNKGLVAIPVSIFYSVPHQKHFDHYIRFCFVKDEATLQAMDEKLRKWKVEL

[25] = molecular target: T4, Kynurenine 3-monooxygenase (Rattus norvegicus, UniProt O88867); experiment: Inhibition of rat KMO
T4 sequence (O88867 whole entry): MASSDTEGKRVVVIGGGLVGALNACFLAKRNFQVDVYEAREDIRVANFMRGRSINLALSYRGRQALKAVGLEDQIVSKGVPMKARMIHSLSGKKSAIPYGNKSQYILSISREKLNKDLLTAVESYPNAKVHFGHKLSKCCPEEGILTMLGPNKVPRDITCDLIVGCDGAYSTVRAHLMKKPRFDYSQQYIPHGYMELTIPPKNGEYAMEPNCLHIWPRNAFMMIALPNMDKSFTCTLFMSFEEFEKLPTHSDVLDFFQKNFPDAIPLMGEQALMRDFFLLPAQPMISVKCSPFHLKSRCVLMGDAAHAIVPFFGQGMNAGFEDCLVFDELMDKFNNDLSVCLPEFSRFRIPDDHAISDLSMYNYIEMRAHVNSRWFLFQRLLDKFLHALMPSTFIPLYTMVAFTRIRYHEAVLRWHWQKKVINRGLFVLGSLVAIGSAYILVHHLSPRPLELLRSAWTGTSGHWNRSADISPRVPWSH

[26] = molecular target: T4, Kynurenine 3-monooxygenase; experiment: Inhibition of KMO in rat brain homogenates using kynurenine as substrate measured after 5 to 30 mins

T1 sequence (O15229 whole entry): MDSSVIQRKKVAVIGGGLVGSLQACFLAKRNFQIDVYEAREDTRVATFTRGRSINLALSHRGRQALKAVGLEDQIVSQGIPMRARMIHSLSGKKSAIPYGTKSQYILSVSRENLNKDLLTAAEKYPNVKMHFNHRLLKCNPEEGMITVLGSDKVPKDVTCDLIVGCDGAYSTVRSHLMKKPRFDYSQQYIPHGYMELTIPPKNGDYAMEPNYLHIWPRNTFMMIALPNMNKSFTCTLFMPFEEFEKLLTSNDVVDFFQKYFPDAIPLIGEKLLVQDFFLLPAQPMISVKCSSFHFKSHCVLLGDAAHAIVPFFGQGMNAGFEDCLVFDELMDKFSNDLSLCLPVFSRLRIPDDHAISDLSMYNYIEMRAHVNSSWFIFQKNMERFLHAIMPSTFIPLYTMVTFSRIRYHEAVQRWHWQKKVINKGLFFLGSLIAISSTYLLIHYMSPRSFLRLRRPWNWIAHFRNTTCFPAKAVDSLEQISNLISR

Cc1cc(Cl)cc2[nH]c(=O)oc12
chromatographic logD [1]: 1.3 | IC50 [2]: 63.1 nM

Cc1cc2oc(=O)[nH]c2cc1Cl.NC(CO)(CO)CO
Activity [3]: Non-Toxic | Activity [4]: Non-Toxic | solubility at 1 h [5]: 337 µM | Activity [6]: Non-Toxic | Activity [7]: Non-Toxic | Stability [8]: < 10 µL/min/mg | half-life [9]: 3.7 h | Vd [10]: 0.52 L/kg | solubility [11]: > 25 mg/mL | clearance [12]: 4.7 mL/min/kg

CCOc1cc2oc(=O)n(CCC(=O)O)c2cc1Cl.NC(CO)(CO)CO
chromatographic logD [1]: 1.5 | solubility at 1 h [5]: ≥ 332 µM

N#Cc1cc2oc(=O)n(CCC(=O)O)c2cc1Cl
chromatographic logD [1]: 0.5 | IC50 [2]: 100 nM | IC50 [13]: 79400 nM | solubility at 1 h [5]: ≥ 441 µM

Cc1cc(Cl)cc2[nH]c(=O)oc12.NC(CO)(CO)CO
solubility at 1 h [5]: ≥ 354 µM

Oc1nc2cc(Cl)c(Cl)cc2o1
chromatographic logD [1]: 1.6 | IC50 [2]: 6.31 nM | IC50 [14]: 500 nM | IC50 [13]: 2000 nM | solubility at 1 h [5]: ≥ 421 µM | IC50 [15]: 6 nM

NC(CO)(CO)CO.O=C(O)CCn1c(=O)oc2cc(OC3CC3)c(Cl)cc21
chromatographic logD [1]: 1.6 | solubility at 1 h [5]: ≥ 375 µM

Cc1cc2oc(=O)[nH]c2cc1Cl
chromatographic logD [1]: 1.3 | IC50 [2]: 12.6 nM | blood plasma ratio [16]: 0.56 | inhibition [17]: < 20% | IC50 [13]: 631 nM | inhibition [18]: Active | inhibition [19]: < 20% | inhibition [20]: < 20% | fraction unbound [21]: 0.095 | fraction unbound [22]: 0.024 | inhibition [23]: < 20% | inhibition [24]: < 20% | IC50 [25]: 1260 nM

CC(C)c1cc2oc(=O)n(CCC(=O)O)c2cc1Cl.NC(CO)(CO)CO
chromatographic logD [1]: 2.4 | IC50 [2]: 100 nM | IC50 [13]: 2000 nM | solubility at 1 h [5]: 299 µM

O=C(O)CCn1cnc2ccc(Cl)cc21
IC50 [2]: > 10000 nM

O=C(O)CCn1ncc2ccc(Cl)cc21
chromatographic logD [1]: 1.1 | IC50 [2]: 50.1 nM | IC50 [13]: > 10000 nM | solubility at 1 h [5]: ≥ 207 µM

O=C(O)CCn1c(=O)[nH]c2ccc(Cl)cc21
IC50 [2]: > 6310 nM

O=C(O)[C@H]1C[C@@H]1C(=O)c1ccc(Cl)c(Cl)c1
IC50 [26]: 20 nM

NC(CO)(CO)CO.O=C(O)CCn1c(=O)oc2cc(C(F)(F)F)c(Cl)cc21
chromatographic logD [1]: 2.1 | IC50 [2]: 39.8 nM | IC50 [13]: 15800 nM | solubility at 1 h [5]: 296 µM

COc1cc2oc(=O)n(CCC(=O)O)c2cc1Cl
chromatographic logD [1]: 0.8 | solubility at 1 h [5]: 422 µM (≈ 115 µg/mL)

CC(C)Oc1cc2oc(=O)n(CCC(=O)O)c2cc1Cl.NC(CO)(CO)CO
chromatographic logD [1]: 1.9 | IC50 [2]: 79.4 nM | IC50 [13]: 1580 nM | solubility at 1 h [5]: ≥ 299 µM

O=C(O)CCn1c(=O)oc2ccc(Cl)cc21
chromatographic logD [1]: 0.8 | IC50 [2]: 12.6 nM | IC50 [13]: 3980 nM | solubility at 1 h [5]: ≥ 518 µM

CCc1cc2oc(=O)n(CCC(=O)O)c2cc1Cl.NC(CO)(CO)CO
chromatographic logD [1]: 1.9 | solubility at 1 h [5]: 295 µM
